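Where inhibition never reached the appropriate level, the endpoint shown equals the highest concentration tested. Otherwise, values were interpolated linearly from a five-concentration, 48-hour dose response in 96-well plates. Abbreviation: GI50, concentration required for 50% inhibition of growth.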 The source made the active and inactive calls. Cut-off read from the data, not from the text of the source: active = GI50 up to about 1.1 µM and inactive = higher. Bounds are passed on as bounds.

Test systems include SNB-75; SF-539; SF-295; COLO 205; DU-145; HOP-92; A498; NCI-H23; UACC-257; HOP-62; OVCAR-5; M14; SK-MEL-5; EKVX; MOLT-4; SR; T47D; K562; CCRF-CEM; NCI/ADR-RES.
Holding throughout (assay): NCI-60 cell line screen, 48 h

In the case of `CCOc1ccc(-n2c(=O)c3nn4c(=O)n(-c5ccc(OCC)cc5)c(=O)c4nn3c2=O)cc1`, the GI50 is 20.3 µM (inactive) in the assay with SNB-75; > 100 µM (inactive) in the assay with SF-539; 43.3 µM (inactive) with SF-295; > 100 µM (inactive) in the assay on COLO 205; > 100 µM (inactive) in the assay with DU-145; 30.9 µM (inactive) in the assay with HOP-92. Besides, the GI50 was 18.6 µM (inactive) in the assay on A498; > 100 µM (inactive) in the assay with NCI-H23; > 100 µM (inactive) in the assay on UACC-257; 77.8 µM (inactive) in the assay on HOP-62; > 100 µM (inactive) in the assay with OVCAR-5; > 100 µM (inactive) in the assay on M14. Besides, the GI50 with SK-MEL-5, with EKVX, in the assay on MOLT-4, in the assay on SR, in the assay on T47D and in the assay with K562 was > 100 µM (inactive) throughout. Also, the GI50 was > 10 µM (inactive) in the assay with CCRF-CEM and > 100 µM (inactive) in the assay on NCI/ADR-RES.

On to `COc1ccc(Cc2n[nH]c(Nc3ccc(Br)cc3)nc2=O)cc1OC`, for which the GI50 was 28.9 µM (inactive) with SNB-75; > 100 µM (inactive) with SF-539; > 100 µM (inactive) in the assay with SF-295; > 100 µM (inactive) with COLO 205; > 100 µM (inactive) with DU-145; > 100 µM (inactive) in the assay with HOP-92. In addition, the GI50 is > 100 µM (inactive) in the assay on A498; > 100 µM (inactive) in the assay on NCI-H23; > 100 µM (inactive) in the assay with UACC-257; 42.9 µM (inactive) with HOP-62; > 100 µM (inactive) in the assay on OVCAR-5; > 89.7 µM (inactive) with M14. Also, the GI50 was > 87.9 µM (inactive) with SK-MEL-5; > 100 µM (inactive) in the assay on EKVX; 43.1 µM (inactive) in the assay on MOLT-4; 30.3 µM (inactive) with SR; 94.2 µM (inactive) in the assay on T47D; 44.9 µM (inactive) in the assay with K562. The GI50 in the assay on CCRF-CEM was 59.2 µM (inactive); with NCI/ADR-RES, > 100 µM (inactive).

For the molecule `[N-]=[N+]=Nc1ccc2c(c1)Sc1ccccc1N2CCCCCl`, the GI50 was > 100 µM (inactive) in the assay with SNB-75; > 100 µM (inactive) in the assay with SF-539; > 100 µM (inactive) with SF-295; 18.7 µM (inactive) in the assay with COLO 205; > 100 µM (inactive) in the assay with DU-145; 32.2 µM (inactive) with HOP-92. In addition, the GI50 is > 100 µM (inactive) in the assay on A498; 41.8 µM (inactive) in the assay on NCI-H23; 71.9 µM (inactive) in the assay on UACC-257; > 100 µM (inactive) with HOP-62; > 100 µM (inactive) with OVCAR-5; > 100 µM (inactive) in the assay on M14. Further, the GI50 is 14.9 µM (inactive) in the assay on SK-MEL-5; 56 µM (inactive) with EKVX; 22 µM (inactive) with MOLT-4; 30.9 µM (inactive) in the assay with SR; 44.7 µM (inactive) in the assay on T47D; 14 µM (inactive) with K562. The figures for the GI50 in the assay with CCRF-CEM and in the assay on NCI/ADR-RES were 36.7 µM (inactive) and > 100 µM (inactive), respectively.

`ONCCCn1cnc2c(NC3CC3)ncnc21`: the GI50 in the assay with SNB-75, with SF-539, in the assay on SF-295, with COLO 205, in the assay on DU-145 and in the assay on HOP-92 was > 100 µM (inactive) each time. In addition, the GI50 in the assay with A498, with NCI-H23, with UACC-257, in the assay on HOP-62, in the assay with OVCAR-5 and with M14 was > 100 µM (inactive) in each case. Moreover, the GI50 with SK-MEL-5, in the assay with EKVX, in the assay on MOLT-4, with SR, in the assay on T47D and in the assay on K562 was > 100 µM (inactive) throughout. Further, the GI50 in the assay on CCRF-CEM and in the assay on NCI/ADR-RES was > 100 µM (inactive) in each case.

For `Cc1ccc(C2=CC(=O)/C(=C\C(=O)c3ccc(Br)cc3)O2)c(C)c1`, the GI50 in the assay with SNB-75 is 7.85 µM (inactive); in the assay with SF-539 it was 31.4 µM (inactive); in the assay with SF-295 it was 26 µM (inactive); in the assay with COLO 205, 3.85 µM (inactive); in the assay with DU-145, 30.4 µM (inactive); in the assay on HOP-92 it was 6.4 µM (inactive). Besides, the GI50 in the assay with A498 is 19.9 µM (inactive); in the assay with NCI-H23, 26.6 µM (inactive); with UACC-257, 16.9 µM (inactive); in the assay with HOP-62, 42.4 µM (inactive); in the assay on OVCAR-5, 23.7 µM (inactive); in the assay on M14, 11.6 µM (inactive). Also, the GI50 in the assay with SK-MEL-5 is 14.5 µM (inactive); in the assay on EKVX, 28.6 µM (inactive); in the assay on MOLT-4 it was 3.52 µM (inactive); in the assay with SR it was 2.36 µM (inactive); in the assay with T47D it was 8.79 µM (inactive); with K562 it was 3.4 µM (inactive). The values for the GI50 in the assay on CCRF-CEM and with NCI/ADR-RES were 2.69 µM (inactive) and 7.91 µM (inactive), respectively.

As for `Cc1ccnc2[nH]c3ccccc3c(=O)c12`, the GI50 is 16.7 µM (inactive) in the assay on SNB-75; 17.9 µM (inactive) in the assay with SF-539; 35.5 µM (inactive) in the assay with SF-295; 19.8 µM (inactive) with COLO 205; 30.2 µM (inactive) with DU-145; 41.6 µM (inactive) with HOP-92. Also, the GI50 in the assay on A498 is 28.8 µM (inactive); in the assay with NCI-H23 it was 22.9 µM (inactive); in the assay with UACC-257, 39.4 µM (inactive); with HOP-62 it was 43.8 µM (inactive); in the assay on OVCAR-5, 23.8 µM (inactive); with M14 it was 26.8 µM (inactive). In addition, the GI50 in the assay on SK-MEL-5 is 14 µM (inactive); in the assay on EKVX, 28.8 µM (inactive); with MOLT-4 it was 20.4 µM (inactive); with SR it was 11.5 µM (inactive); in the assay on T47D it was 31.3 µM (inactive); in the assay on K562, 33.2 µM (inactive). Besides, the results for the GI50 with CCRF-CEM and with NCI/ADR-RES were 36.6 µM (inactive) and 28.6 µM (inactive), respectively.

In the case of `CCCCCCCCCCCCCCCCCCNc1ccn(C2OC(COP(=O)(O)OC3CC(n4cc(F)c(=O)[nH]c4=O)OC3COP(=O)(O)OCC3OC(n4ccc(N)nc4=O)C(O)C3O)C(O)C2O)c(=O)n1` (stereo not given), the GI50 was 38.6 µM (inactive) with SNB-75; < 0.01 µM (active) with SF-539; 0.413 µM (active) with SF-295; 8.17 µM (inactive) in the assay on COLO 205; 1.08 µM (active) with DU-145; > 60.4 µM (inactive) in the assay with HOP-92. The GI50 in the assay on A498 was 20.8 µM (inactive); in the assay with NCI-H23 it was 2.92 µM (inactive); in the assay on UACC-257, 22.6 µM (inactive); with HOP-62, 10.4 µM (inactive); in the assay with OVCAR-5 it was 36.5 µM (inactive); in the assay with M14, 0.453 µM (active). Besides, the GI50 in the assay with SK-MEL-5 is 3.62 µM (inactive); in the assay with EKVX, 32 µM (inactive); in the assay on MOLT-4 it was 0.611 µM (active); with SR, 0.407 µM (active); with T47D, 24.5 µM (inactive); in the assay on K562, 16.6 µM (inactive). Further, the GI50 is 0.0206 µM (active) in the assay with CCRF-CEM and 14.5 µM (inactive) with NCI/ADR-RES.

On to `Cc1ccc(C(=O)CC(O)(C(F)(F)F)C(F)(F)F)cc1[N+](=O)[O-]`, for which the GI50 is 18.3 µM (inactive) with SNB-75; 17 µM (inactive) in the assay on SF-539; 7 µM (inactive) in the assay with SF-295; 16.8 µM (inactive) in the assay with COLO 205; 6.22 µM (inactive) in the assay on DU-145; 9.4 µM (inactive) in the assay with HOP-92. Also, the GI50 with A498 was 21.3 µM (inactive); in the assay on NCI-H23, 9.29 µM (inactive); with UACC-257, 3.21 µM (inactive); in the assay with HOP-62, 15.2 µM (inactive); in the assay on OVCAR-5 it was 18 µM (inactive); in the assay on M14, 6.59 µM (inactive). Moreover, the GI50 is 16.4 µM (inactive) in the assay with SK-MEL-5; 17.9 µM (inactive) with EKVX; 16.7 µM (inactive) in the assay with MOLT-4; 5.73 µM (inactive) in the assay on SR; 13.5 µM (inactive) with T47D; 2.79 µM (inactive) in the assay on K562. Further, the GI50 in the assay on CCRF-CEM was 4.63 µM (inactive); in the assay with NCI/ADR-RES, 16.3 µM (inactive).

Source of the values: ChEMBL document CHEMBL1201862, “PubChem BioAssay data set” (2004).
